US11274083B2, “Substituted thiophenyl uracils, salts thereof and the use thereof as herbicidal agents” (Syngenta Crop Protection AG, priority 2017, dated 2022)

Assays:
Assay type in all cases: in vivo
Zea mays = assay: Crop compatibility post-emergence, greenhouse pot test; settings: application rate 5 g/ha
Protocol: (§1) Seeds of mono- and dicotyledonous weed plants and crop plants were laid out in sandy loam soil in plastic or wood-fiber pots, covered with soil and grown under controlled growth conditions in a greenhouse. 2 to 3 weeks after sowing, the trial plants were treated at the one-leaf stage. The compounds of the invention formulated in the form of wettable powders (WP) or as emulsion concentrates (EC) were then sprayed onto the green parts of the plant as an aqueous suspension or emulsion with addition of 0.5% additive at a water application rate equivalent to 600 L/ha. After the trial plants had stood for about 3 weeks in the greenhouse, under optimal growth conditions, the effect of the preparations was scored visually by comparison with untreated controls. For example, 100% efficacy=plants have died, 0% efficacy=like control plants.
(§2) Crop plant compatibilities were also scored correspondingly.
(§3) The effects observed are reported here on selected crop plants by comparison, with the untreated controls (values in %).

Triticum aestivum = assay: as above
Protocol: as §1, §2, §3

Viola tricolor [1] = assay: Herbicidal action pre-emergence, greenhouse pot test
Text: (§4) Seeds of mono- and dicotyledonous weeds and crop plants were laid out in plastic or organic plant pots and covered with soil. The compounds of the invention formulated in the form of wettable powders (WP) or as emulsion concentrates (EC) were then applied to the surface of the covering soil as an aqueous suspension or emulsion with addition of 0.5% additive at a water application rate equivalent to 600 L/ha. After the treatment, the pots were placed in a greenhouse and kept under good growth conditions for the test plants. After about 3 weeks, the efficacy of the preparations was scored visually as a percentage by comparison with untreated controls. For example, 100% efficacy=plants have died. 0% efficacy=like control plants. Tables B1 to B17 below show the efficacies of selected compounds of the general formula (I) according to tables I.1 to I.50 on various harmful plants and an application rate corresponding to 320 g/ha or lower that were obtained by the aforementioned trial method.

Pharbitis purpurea [2] = assay: as above
Text: as §4

Echinochloa crus-galli [3] = assay: as above; settings: application rate 320 g/ha
Text: as §4

Hordeum murinum = assay: as above; settings: application rate 320 g/ha
Text: as §4

Setaria viridis [4] = assay: as above
Text: as §4

Abutilon theophrasti [5] = assay: as above
Text: as §4

Alopecurus myosuroides [6] = assay: as above; settings: application rate 320 g/ha
Text: as §4

Veronica persica [7] = assay: as above
Text: as §4

Lolium rigidum [8] = assay: as above
Text: as §4

Stellaria media [9] = assay: as above
Text: as §4

Polygonum convolvulus [10] = assay: as above
Text: as §4

Amaranthus retroflexus [11] = assay: as above
Text: as §4

Matricaria inodora [12] = assay: as above
Text: as §4, with “according to tables I.1 to I.50 on various harmful plants and an application rate corresponding to 320 g/ha or lower that were obtained by the” left out

Viola tricolor [13] = assay: Herbicidal action post-emergence, greenhouse pot test
Protocol: as §1, with “plants. Tables A1 to A16 below show the efficacies of selected compounds of the general formula (I) according to tables I.1 to I.50 on various harmful plants and an application rate corresponding to 80 g/ha or lower that were obtained by the aforementioned trial method.” for “plants.”

Pharbitis purpurea [14] = assay: as above; settings: application rate 80 g/ha
Protocol: as §1, with “plants. Tables A1 to A16 below show the efficacies of selected compounds of the general formula (I) according to tables I.1 to I.50 on various harmful plants and an application rate corresponding to 80 g/ha or lower that were obtained by the aforementioned trial method.” for “plants.”

Echinochloa crus-galli [15] = assay: as above; settings: application rate 80 g/ha
Protocol: as §1, with “plants. Tables A1 to A16 below show the efficacies of selected compounds of the general formula (I) according to tables I.1 to I.50 on various harmful plants and an application rate corresponding to 80 g/ha or lower that were obtained by the aforementioned trial method.” for “plants.”

Matricaria inodora [16] = assay: as above; settings: application rate 80 g/ha
Protocol: as §1, with “plants. Tables A1 to A16 below show the efficacies of selected compounds of the general formula (I) according to tables I.1 to I.50 on various harmful plants and an application rate corresponding to 80 g/ha or lower that were obtained by the aforementioned trial method.” for “plants.”

Setaria viridis [17] = assay: as above; settings: application rate 80 g/ha
Protocol: as §1, with “plants. Tables A1 to A16 below show the efficacies of selected compounds of the general formula (I) according to tables I.1 to I.50 on various harmful plants and an application rate corresponding to 80 g/ha or lower that were obtained by the aforementioned trial method.” for “plants.”

Abutilon theophrasti [18] = assay: as above; settings: application rate 80 g/ha
Protocol: as §1, with “plants. Tables A1 to A16 below show the efficacies of selected compounds of the general formula (I) according to tables I.1 to I.50 on various harmful plants and an application rate corresponding to 80 g/ha or lower that were obtained by the aforementioned trial method.” for “plants.”

Veronica persica [19] = assay: as above; settings: application rate 80 g/ha
Protocol: as §1, with “plants. Tables A1 to A16 below show the efficacies of selected compounds of the general formula (I) according to tables I.1 to I.50 on various harmful plants and an application rate corresponding to 80 g/ha or lower that were obtained by the aforementioned trial method.” for “plants.”

Lolium rigidum [20] = assay: as above; settings: application rate 80 g/ha
Protocol: as §1, with “plants. Tables A1 to A16 below show the efficacies of selected compounds of the general formula (I) according to tables I.1 to I.50 on various harmful plants and an application rate corresponding to 80 g/ha or lower that were obtained by the aforementioned trial method.” for “plants.”

Stellaria media [21] = assay: as above; settings: application rate 80 g/ha
Protocol: as §1, with “plants. Tables A1 to A16 below show the efficacies of selected compounds of the general formula (I) according to tables I.1 to I.50 on various harmful plants and an application rate corresponding to 80 g/ha or lower that were obtained by the aforementioned trial method.” for “plants.”

Polygonum convolvulus [22] = assay: as above; settings: application rate 80 g/ha
Protocol: as §1, with “plants. Tables A1 to A16 below show the efficacies of selected compounds of the general formula (I) according to tables I.1 to I.50 on various harmful plants and an application rate corresponding to 80 g/ha or lower that were obtained by the aforementioned trial method.” for “plants.”

Amaranthus retroflexus [23] = assay: as above
Protocol: as §1, with “plants. Tables A1 to A16 below show the efficacies of selected compounds of the general formula (I) according to tables I.1 to I.50 on various harmful plants and an application rate corresponding to 80 g/ha or lower that were obtained by the aforementioned trial method.” for “plants.”

Avena fatua = assay: Herbicidal action pre-emergence, greenhouse pot test; settings: application rate 320 g/ha
Text: as §4

Alopecurus myosuroides [24] = assay: Herbicidal action post-emergence, greenhouse pot test; settings: application rate 80 g/ha, scored visually after about 3 weeks vs untreated controls
Protocol: as §1, with “plants. Tables A1 to A16 below show the efficacies of selected compounds of the general formula (I) according to tables I.1 to I.50 on various harmful plants and an application rate corresponding to 80 g/ha or lower that were obtained by the aforementioned trial method.” for “plants.”

Oryza sativa = assay: Crop compatibility post-emergence, greenhouse pot test; settings: application rate 20 g/ha
Protocol: as §1, §2, §3

Row | Zea mays (Efficacy in %) (Zea mays) | Triticum aestivum (Efficacy in %) (Triticum aestivum; application rate 80 g/ha) | SMILES | Viola tricolor (Efficacy in %) (Viola tricolor [1]; application rate 320 g/ha) | Pharbitis purpurea (Efficacy in %) (Pharbitis purpurea [2]; application rate 320 g/ha) | Echinochloa crus-galli (Efficacy in %) (Echinochloa crus-galli [3]) | Hordeum murinum (Efficacy in %) (Hordeum murinum) | Setaria viridis (Efficacy in %) (Setaria viridis [4]; application rate 320 g/ha) | Abutilon theophrasti (Efficacy in %) (Abutilon theophrasti [5]; application rate 320 g/ha) | Alopecurus myosuroides (Efficacy in %) (Alopecurus myosuroides [6]) | Veronica persica (Efficacy in %) (Veronica persica [7]; application rate 320 g/ha) | Lolium rigidum (Efficacy in %) (Lolium rigidum [8]; application rate 320 g/ha) | Stellaria media (Efficacy in %) (Stellaria media [9]; application rate 320 g/ha) | Pharbitis purpurea (Efficacy in %) (Pharbitis purpurea [14]) | Echinochloa crus-galli (Efficacy in %) (Echinochloa crus-galli [15]) | Matricaria inodora (Efficacy in %) (Matricaria inodora [16]) | Setaria viridis (Efficacy in %) (Setaria viridis [17]) | Abutilon theophrasti (Efficacy in %) (Abutilon theophrasti [18]) | Veronica persica (Efficacy in %) (Veronica persica [19]) | Stellaria media (Efficacy in %) (Stellaria media [21]) | Polygonum convolvulus (Efficacy in %) (Polygonum convolvulus [22]) | also measured
1 | 10% | 20% | CC(Sc1cc(-n2c(=O)cc(C(F)(F)F)n(C)c2=O)c(F)cc1Cl)C(=O)OCCC(=O)O (centres unmarked) [I.1-1] | 100% | 100% | 100% | 90% | 100% | 100% | 100% | 100% | 100% | 100% | 100% | 100% | 100% | 100% | 100% | 100% | 100% | 100% | Polygonum convolvulus (Efficacy in %) (Polygonum convolvulus [10]; application rate 320 g/ha): 100%; Amaranthus retroflexus (Efficacy in %) (Amaranthus retroflexus [11]; application rate 20 g/ha): 100%; Matricaria inodora (Efficacy in %) (Matricaria inodora [12]; application rate 320 g/ha): 100%; Viola tricolor (Efficacy in %) (Viola tricolor [13]; application rate 80 g/ha): 100%; Lolium rigidum (Efficacy in %) (Lolium rigidum [20]): 80%; Amaranthus retroflexus (Efficacy in %) (Amaranthus retroflexus [23]; application rate 20 g/ha): 100%
2 |  |  | CCOC(=O)CC(C)OC(=O)C(C)Sc1cc(-n2c(=O)cc(C(F)(F)F)n(C)c2=O)c(F)cc1Cl (centres unmarked) [I.1-23] |  |  | 100% | 100% |  |  | 100% |  |  |  | 100% | 100% | 100% | 100% | 100% | 100% | 100% | 100% | Triticum aestivum (Efficacy in %) (Triticum aestivum; application rate 20 g/ha): 20%; Viola tricolor (Efficacy in %) (Viola tricolor [1]; application rate 80 g/ha): 100%; Pharbitis purpurea (Efficacy in %) (Pharbitis purpurea [2]; application rate 80 g/ha): 100%; Setaria viridis (Efficacy in %) (Setaria viridis [4]; application rate 80 g/ha): 100%; Abutilon theophrasti (Efficacy in %) (Abutilon theophrasti [5]; application rate 80 g/ha): 100%; Veronica persica (Efficacy in %) (Veronica persica [7]; application rate 80 g/ha): 100%; Lolium rigidum (Efficacy in %) (Lolium rigidum [8]; application rate 80 g/ha): 100%; Stellaria media (Efficacy in %) (Stellaria media [9]; application rate 80 g/ha): 100%; Polygonum convolvulus (Efficacy in %) (Polygonum convolvulus [10]; application rate 80 g/ha): 100%; Amaranthus retroflexus (Efficacy in %) (Amaranthus retroflexus [11]; application rate 80 g/ha): 100%; Avena fatua (Efficacy in %) (Avena fatua): 100%; Matricaria inodora (Efficacy in %) (Matricaria inodora [12]; application rate 800 g/ha): 100%; Viola tricolor (Efficacy in %) (Viola tricolor [13]; application rate 20 g/ha): 100%; Alopecurus myosuroides (Efficacy in %) (Alopecurus myosuroides [24]): 90%; Lolium rigidum (Efficacy in %) (Lolium rigidum [20]): 90%; Amaranthus retroflexus (Efficacy in %) (Amaranthus retroflexus [23]; application rate 80 g/ha): 100%
3 | 20% | 20% | CC(Sc1cc(-n2c(=O)cc(C(F)(F)F)n(C)c2=O)c(F)cc1Cl)C(=O)OCCC(N)=O (centres unmarked) [I.1-151] | 100% | 100% | 100% | 80% | 100% | 100% |  | 100% | 90% | 100% | 100% | 100% | 100% | 100% | 100% | 100% | 90% | 100% | Oryza sativa (Efficacy in %) (Oryza sativa): 10%; Polygonum convolvulus (Efficacy in %) (Polygonum convolvulus [10]; application rate 320 g/ha): 100%; Amaranthus retroflexus (Efficacy in %) (Amaranthus retroflexus [11]; application rate 80 g/ha): 100%; Avena fatua (Efficacy in %) (Avena fatua): 90%; Matricaria inodora (Efficacy in %) (Matricaria inodora [12]; application rate 320 g/ha): 100%; Viola tricolor (Efficacy in %) (Viola tricolor [13]; application rate 80 g/ha): 100%; Alopecurus myosuroides (Efficacy in %) (Alopecurus myosuroides [24]): 90%; Amaranthus retroflexus (Efficacy in %) (Amaranthus retroflexus [23]; application rate 80 g/ha): 100%
